Several values for one entry are separate records, joined by “and”; a condition that tells them apart may be missing. Equal entries are not always repeated.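 Interpolation was linear, between the two tested concentrations surrounding the appropriate level; five concentrations were tested over 48 hours in 96-well plates. GI50 is the concentration that inhibits growth by half. At the TGI there is no net growth.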
Columns and labels:
Test in all cases: growth of human tumour cells (NCI), 48 h
[1] = system: SF-268 CNS
[2] = system: HT29 colon
[3] = system: NCI-H460 lung
[4] = system: LOX IMVI melanoma
[5] = system: NCI-H23 lung
[6] = system: MALME-3M melanoma
[7] = system: HCC-2998 colon
[8] = system: UACC-62 melanoma
[9] = system: TK-10 renal
[10] = system: DU-145 prostate

SMILES	TGI [1]	TGI [2]	TGI [3]	TGI [4]	TGI [5]	TGI [6]	TGI [7]	TGI [8]	TGI [9]	GI50 [1] [µM]	GI50 [2] [µM]	GI50 [3] [µM]	GI50 [10] [µM]	TGI [10] [µM]	GI50 [5] [µM]	GI50 [6] [µM]	GI50 [7] [µM]	GI50 [8] [µM]	GI50 [9] [µM]	GI50 [4] [µM]
O=C(OCc1nc2ccc(Br)cc2c(=O)n1-c1ccccc1)c1ccccc1O	> 100 µM	> 100 µM	> 100 µM	> 100 µM	> 100 µM	> 100 µM	> 100 µM	> 100 µM	> 100 µM											
CCCCCCN1C(=O)CN=C1Nc1ccc2cc3ccc(NC4=NCC(=O)N4CCCCCC)cc3nc2c1	5.72 µM	4.2 µM	3.83 µM		5.23 µM	3.59 µM	3.04 µM	30 µM	3.63 µM	2.02	1.81	1.93	1.94	4.21	1.96	1.71	1.58	11.7	1.56	
O=C1c2cccc3cccc(c23)C(=O)N1CCCN1CCN(CCCN2C(=O)c3cccc4cccc(c34)C2=O)CC1		> 100 µM	> 100 µM	> 100 µM	> 100 µM	> 100 µM	> 100 µM	> 100 µM	> 100 µM											
Cc1csc(Nc2nc(-c3cccc(Cl)c3)nc(C(Cl)(Cl)Cl)n2)n1	> 33.3 µM	13.1 µM	5.42 µM		> 33.3 µM	> 33.3 µM	4.71 µM	> 33.3 µM	14.4 µM	6.48	1.04	1.22	0.713	2.01	23.7	> 33.3	1.22	6.73	2.51	
O=C1/C(=C/c2ccccc2)CN(C(=O)OCC(Cl)(Cl)Cl)C/C1=C\c1ccccc1	15.3 µM	3.63 µM	5.66 µM	2.06 µM	9.46 µM	11.9 µM		9.03 µM	17.1 µM											
Cc1cccc(N2C(=O)/C(=C/c3ccc(N(CCC#N)CCC#N)cc3C)N=C2c2cc([N+](=O)[O-])ccc2Cl)c1	> 100 µM	> 100 µM	> 100 µM		> 100 µM	> 100 µM	> 100 µM	> 100 µM	> 100 µM											
COC(=O)C1=C(O)C(C(=O)OC)[C@@]2(O)[C@@H](C(=O)OC)C(c3ccc(OC(=O)C(CC(C)C)NC(C)=O)cc3)C[C@@H]1[C@@H]2C(=O)OC (some centres not stated)	> 100 µM	> 100 µM	> 100 µM	45 µM	> 100 µM		52 µM	63.8 µM	> 100 µM	35.7	62.2	41.6			36.9		19	23.2	57.4	20.6
Cc1cccc(CC(C)(C)C)c1NC(=O)C(=O)C(C(=O)c1ccc2ccccc2c1)C1OC(=O)c2ccccc21 (configuration not stated)	30.6 µM	51.6 µM	17 µM	43.9 µM	19.2 µM	27.4 µM	25.2 µM	21.7 µM												
CCC1NCC(=O)c2c1[nH]c1ccccc21 (configuration not stated)	> 100 µM	> 100 µM	> 100 µM	> 100 µM	> 100 µM	> 100 µM	> 100 µM	> 100 µM	> 100 µM											
O=c1[nH]c(-c2ccccn2)nc2sc3c(c12)CCCCCC3	> 100 µM	> 100 µM	> 100 µM	> 100 µM	> 100 µM		> 100 µM	> 100 µM	> 100 µM	8.66	7.69	1.91	6.73	> 100	11		26.2	5.51	> 100	1.09
Cc1c(-c2coc(-c3ccc(Cl)cc3)n2)c(=O)n(-c2ccccc2)n1C	> 100 µM	> 100 µM	> 100 µM	> 100 µM	> 100 µM	> 100 µM	> 100 µM	> 100 µM	> 100 µM											
Cn1cc(-c2nn3cc(-c4cccs4)nc3s2)c2cc(F)ccc21	> 100 µM	14.8 µM	17.1 µM		> 100 µM	31.6 µM	33.9 µM	> 100 µM	19.4 µM	6.58	0.477	1.73	3.67	31.6	3.82	1.81	5.64	1.93	4.92	
CCCCCCCCC(=O)NCCCNCCCNC(=O)CCCCCCCC	26 µM	7.5 µM	6.57 µM	3.19 µM	29.9 µM	26.6 µM	6.67 µM	12.3 µM	30.2 µM											
Cc1ns/c(=N\C(=S)N(C)C)n1C	> 100 µM	> 100 µM	> 100 µM		> 100 µM	> 100 µM	> 100 µM	> 100 µM	> 100 µM											
COc1cc2c(c(OC)c1OC)-c1ccc(SC)c(=O)cc1[C@@H](NC(=O)c1ccc(C#N)cc1)CC2	> 48.7 µM	< 0.01 µM	< 0.01 µM	36.7 µM	< 0.01 µM	96.9 µM	< 0.01 µM	> 100 µM	> 100 µM											
CN1CC(C(=O)NC2(C)OC3(O)C4CCCN4C(=O)C(Cc4ccccc4)N3C2=O)C=C2c3cccc4[nH]cc(c34)CC21 (configuration not stated)	29.6 µM	71.1 µM		35.9 µM	46.9 µM	38.6 µM		34.7 µM	41.4 µM					67.8						
Cc1[nH]c(=O)nc(N/N=C/c2ccc(O)cc2)c1C(=O)Nc1ccc(Cl)cc1	> 100 µM		> 100 µM			> 100 µM	> 100 µM	> 100 µM	> 100 µM											
O=C1c2ccccc2C(=O)c2c1ccc1c3ccccc3n(Cc3ccccc3)c21	> 100 µM	> 100 µM	> 100 µM	> 100 µM		> 100 µM		> 100 µM												
O=C1CC2Sc3ccccc3N=C2N1c1ccc(Cl)cc1Cl (configuration not stated)	> 100 µM	> 100 µM	> 100 µM	> 100 µM	> 100 µM	> 100 µM	> 100 µM	> 100 µM	> 100 µM											
COc1ccc(-n2nc(C)c3c2N(C)C2(C)C[C@@H]4C3(C)[C@@H]3CC4(C2)N(C)c2c(c(C)nn2-c2ccc(OC)cc2)[C@H]3C)cc1 (some centres not stated)	70.2 µM	> 100 µM	> 100 µM		99.9 µM	> 100 µM	> 100 µM	> 100 µM	21.3 µM	4.08	3.39	3.69	23	> 100	18.7	6.34	9.65	12.6	4.77	
CCOC(=O)NNC(=O)NC12CC3CC(CC(C3)C1)C2	> 100 µM	> 100 µM	> 100 µM	> 100 µM	> 100 µM	> 100 µM	> 100 µM	> 100 µM	> 100 µM											
Clc1ccccc1C1=NN(c2ccccc2)C2c3cc(Br)ccc3OCC12 (configuration not stated)	> 100 µM	> 100 µM	> 100 µM		> 100 µM	> 100 µM	> 100 µM		> 100 µM											
Fc1nc(F)nc(-c2c3ccccc3c3n2CCS3)n1	> 100 µM	> 100 µM	> 100 µM	> 100 µM	> 100 µM	> 100 µM	> 100 µM													
COc1cc(CC(=O)c2ccc3c(c2)OCO3)cc(OC)c1OC	> 100 µM	> 100 µM	> 100 µM		> 100 µM	> 100 µM	> 100 µM	> 100 µM	> 100 µM											
CC(C)=C1CCC(CN2CCCC2)C1=O (configuration not stated)	65.7 µM	53.5 µM	> 100 µM	> 100 µM	> 100 µM	37.2 µM	34.6 µM	> 100 µM	> 100 µM											
CCCCCCCCCCCCCCCC(=O)N[C@H]1CCc2cc(OC)c(OC)c(OC)c2-c2ccc(SC)c(=O)cc21	7.59 µM and 10.9 µM	0.853 µM and 4.66 µM	2.15 µM and 10.1 µM	11.9 µM	1.96 µM and 3.85 µM	16.3 µM and 1.67 µM	1.87 µM and 6.82 µM	13.4 µM and 11.8 µM	35.8 µM and > 100 µM	1.63	1.81	2.97			1.25	0.345	2.42	1.21	27.9	
CCN1CC2(C)CC[C@@H](OC)C34[C@@H]2[C@H](OC(C)=O)C2(OCO[C@@]25C[C@H](OC)C2C[C@]3(O)[C@@H]5[C@H]2O)[C@H]14	> 100 µM	> 100 µM	> 100 µM	> 100 µM	> 100 µM	> 100 µM	> 100 µM		> 100 µM											
O=C1/C(=C/c2ccccc2)CN(C(=O)Oc2ccc([N+](=O)[O-])cc2)C/C1=C\c1ccccc1		4.36 µM and 4.04 µM		1.26 µM and 3.36 µM			5.99 µM and 3.3 µM			3.11					9.79		1.33	3.81		1.57
COc1ccccc1NC(=O)C(=O)C1C(=O)Nc2ccccc2S1=O (configuration not stated)	> 100 µM	> 100 µM	> 100 µM	> 100 µM	> 100 µM	> 100 µM	> 100 µM	> 100 µM	> 100 µM											

— PubChem BioAssay (NCI)
